The values that follow come from patent US11534428B1, “Compositions and methods for delaying the incidence of labor” (ObsEva S.A., priority 2018, dated 2022).

Entries after “also recorded” stand apart in the source; their conditions may differ. Like-named read-outs stand apart in the source and are kept apart here. Bridge positions count the residues as written; N and C are the ends. Square brackets hold non-standard residues; d marks the D form. Peptide text beside a SMILES is read from it. Orn = NCCC[C@H](N)C(=O)O; Mpa = O=C(O)CCS

Series [1] is described as follows: Part A: three-period crossover, single doses of compound (2) and MgSO4 alone and co-administered. The conditions noted are these: for pharmacokinetic interaction between compound (2) and MgSO4: in vivo.
Description: Both studies enrolled 12 healthy, non-pregnant women of reproductive age. […] During the MgSO4 study, women stayed in the clinic from Day −1 to Day 4 of each period. Safety and pharmacokinetics were assessed in accordance with European and United States clinical drug-interaction guidelines. Additional electrocardiogram and neurological examinations were performed assessing safety following MgSO4 administration.
One cohort of 12 subjects was admitted to the study unit on day −1, period 1. […] On day 1, subjects were crossed over and received the alternate treatment to that in period 1. Subjects were discharged on day 3, and after washout returned on day −1, period 3. […] Outpatient visits occurred on days 4 and 5 followed by a final visit 7 days (±1 day) later. Venous blood samples used in pharmacokinetic analyses were taken pre-dose then 0.25, 0.5, 0.75, 1, 1.5, 2, 3, 4, 6, 8, 12, 16 and 20 hours post dose on day 1 of each treatment period. Single samples for pharmacokinetic analysis were also drawn on days 2, 3, 4 and 5 of each treatment period.
(§1) Plasma samples used to determine drug concentration were analyzed by SGS (SGS CEPHAC, France) using a validated methods. Non-compartmental analysis was used to estimate pharmacokinetic parameters and pharmacokinetic modeling was used to access time-dependent pharmacokinetics. […] Other pharmacokinetic parameters were calculated according to standard equations.
Pharmacokinetic interaction assessments were performed on logarithmically transformed AUC0-24, AUC0-∞ and Cmax values using ANOVA models with fixed effects for sequence (Part A only), period, and treatment and a random term for subject within sequence.
(§2) Differences in tmax were explored by computing the Hodges-Lehmann estimate and the corresponding 90% CI according to Tukey using the approximate method. The Wilcoxon signed rank test was used to test differences in tmax. Unrecorded values were treated as missing.
Series [2] is described as follows: Part B: single-sequence crossover, compound (2) at steady state co-administered with atosiban, nifedipine or betamethasone. The conditions noted are these: for Tmax: female, human, in vivo, iv, 60.75 mg, time of peak plasma concentration.
Description: (§3) Both studies enrolled 12 healthy, non-pregnant women of reproductive age. […] Safety and pharmacokinetics were assessed in accordance with European and United States clinical drug-interaction guidelines.
(§4) Once at steady state, compound (2) was sequentially co-administered with each of the other tocolytic drugs. Subjects were admitted to the study unit on day −1. On day 1, each subject received a single intravenous treatment course of atosiban. […] From days 4 to 9, oral doses of compound (2) (1,000 mg) were administered until reaching steady state. […] Two additional samples were taken at 24 and 48 hours post dose to determine betamethasone concentration, due to the longer half-life of this drug. Pharmacokinetic sampling also occurred before compound (2) administration on days 4, 5, 6, 7, 8 and 9, with an additional 0.25 hour post-dose sample taken on day 9 to determine concentration of compound (2) and its metabolite, compound (1). […] Pharmacokinetic samples were obtained at the times stated above on days 10, 11 and 12, and additional betamethasone samples were obtained 24 and 48 hours post-dose. Subjects were discharged on day 14 and returned for a follow-up visit on day 21.
as §1
(§5) Pharmacokinetic interaction assessments were performed on logarithmically transformed AUC0-24, AUC0-∞ and Cmax values using ANOVA models with fixed effects for sequence (Part A only), period, and treatment and a random term for subject within sequence. The 90% confidence intervals (90% CI) for the geometric mean ratio of AUC0-24, AUC0-∞ and Cmax were constructed, comparing treatments administered alone versus combination treatments.
as §2
For series [3] the following is noted: in vivo.
Description: as §3, §4, §1, §5, §2
Another series can be described thus: clinical. The conditions noted are these: female, human, in vivo.
The target in series [4] is T1, Pept1 transporter protein (Homo sapiens, UniProt P46059).
T1 sequence (P46059 1-708): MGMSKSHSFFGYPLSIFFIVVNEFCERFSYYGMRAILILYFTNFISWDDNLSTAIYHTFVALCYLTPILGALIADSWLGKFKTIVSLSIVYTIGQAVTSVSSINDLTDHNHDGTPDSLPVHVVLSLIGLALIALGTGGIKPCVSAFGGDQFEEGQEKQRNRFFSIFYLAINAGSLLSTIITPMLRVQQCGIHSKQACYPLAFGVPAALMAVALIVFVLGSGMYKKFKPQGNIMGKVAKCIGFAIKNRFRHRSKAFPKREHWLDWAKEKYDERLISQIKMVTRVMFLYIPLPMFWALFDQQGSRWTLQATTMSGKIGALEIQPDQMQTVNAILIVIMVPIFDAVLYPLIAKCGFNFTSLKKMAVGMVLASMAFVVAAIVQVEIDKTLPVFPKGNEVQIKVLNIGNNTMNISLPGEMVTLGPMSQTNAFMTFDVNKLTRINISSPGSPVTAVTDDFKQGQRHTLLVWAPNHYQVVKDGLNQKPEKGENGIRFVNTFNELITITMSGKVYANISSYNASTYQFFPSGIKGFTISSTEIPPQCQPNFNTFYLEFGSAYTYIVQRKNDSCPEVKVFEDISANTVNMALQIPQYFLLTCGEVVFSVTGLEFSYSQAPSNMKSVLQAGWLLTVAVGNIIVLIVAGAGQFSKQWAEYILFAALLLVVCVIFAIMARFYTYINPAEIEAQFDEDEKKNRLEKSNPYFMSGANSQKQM
The series can be described thus: Pept1 transporter dependence of intestinal absorption. Format: in vitro ADME. An excerpt: Compound 2 is de-esterified by ambient esterases in the small intestine and subsequently penetrates the small intestinal epithelium passively. […] Pept1 is known to mediate the absorption of a variety of valinate esters, as described, for example, in Vig et al., Adv. Drug Deliv. Rev. […] Dispos. 41:608-614 (2013). […] Rather, compound 2 and salts thereof are converted in vivo to a form that is readily absorbed in a manner independent of energy and local proton gradient. This beneficial property, coupled with the high aqueous solubility of compound I and salts thereof, fosters a pharmacokinetic profile in which compound 2 and salts thereof readily dissolve in an aqueous environment and are in turn converted into a form capable of transported-independent absorption.

Series [5] can be described thus: clinical drug-interaction study in healthy women, Parts A and B together (pharmacokinetics, safety, tolerability). The conditions noted are these: plasma, oral compound (2). Format: in vivo, human. The method, then:
Healthy women aged between 18 and 45 years with a body mass index of 18.0 to 30.0 kg/m^2 were included in these investigations. Subjects were screened 55 days before the first drug administration and had to be healthy according to medical history, physical examinations, blood pressure tests, electrocardiogram results and laboratory assessment of blood and urine.
This study was performed at Croydon University Hospital, Croydon, UK. The study protocol (EudraCT: 2016-001958-18) was reviewed and approved by a National Health Service (NHS) Research Ethics Committee (South Central-Berkshire B, UK) and the Medicines and Healthcare products Regulatory Authority (MHRA). The study was conducted according to the ethical principles enshrined in UK law, the Declaration of Helsinki and Good Clinical Practice guidelines. All subjects were informed of the purpose of the study and signed voluntary consent forms before being enrolled.
Other pharmacokinetic parameters were calculated according to standard equations.

For series [6] the following is noted: relative to compound 1; cited from earlier work.
A short description of series [7]: crystal form stability and hygroscopicity. Format: physicochemical. An excerpt:
For example, this compound is readily crystallized using a several distinct experimental procedures. Compound 3 assumes a single, reproducible crystal form upon crystallization from a variety of media and under different ambient conditions. […] For instance, impurities associated with atmospheric water are not readily integrated into the crystalline form of compound 3.

Setting [8] is: co-administration with MgSO4 vs compound (2) alone.
The mark [9] stands for this setting: compound (2) with MgSO4 vs alone.

With `O=S(=O)([O-])[O-].[Mg+2]` [MgSO4, magnesium sulfate, reference compound], the “AUCs of total Mg” value in series [1] (after co-administration of compound (2) and MgSO4 vs MgSO4 alone) is recorded as “slightly lower”. In addition, in series [1], the “pharmacokinetic interaction between compound (2) and MgSO4” value was “no relevant mutual pharmacokinetic interactions”. For the same compound, the “effect of compound (2) on timing or extent of total Mg exposure” value in series [1] (interaction analysis) is recorded as “no effects”.

The Tmax is the time from dosing to the highest level. As for `CCOc1ccc(C[C@H]2NC(=O)CCSSC[C@@H](C(=O)N3CCC[C@H]3C(=O)N[C@@H](CCCN)C(=O)NCC(N)=O)NC(=O)[C@H](CC(N)=O)NC(=O)[C@H]([C@@H](C)O)NC(=O)[C@H]([C@@H](C)CC)NC2=O)cc1` [atosiban] ([Mpa][dY](Et)ITNCP[Orn]G-NH2; disulfide 1-6), in series [2] (descriptive), the “Cmax and AUCs, co-administration with compound (2) vs drug alone” value was “slightly higher”. For the same compound, the Tmax was 0.25 h in series [2] (co-administered with compound (2), compound (2) 1,000 mg per day at steady state) and 1.5 h in series [2] (drug administered alone). The “tmax, with compound (2) vs drug alone” value in series [2] (paired analysis) is listed as “no significant tmax difference”.

With `C[C@H]1C[C@H]2[C@@H]3CCC4=CC(=O)C=C[C@]4(C)[C@@]3(F)[C@@H](O)C[C@]2(C)[C@@]1(O)C(=O)CO` [betamethasone, reference compound], in series [3], the “Cmax and AUCs, co-administration with compound (2) vs drug alone” value is on record as “Slightly increased”; the “rise of plasma concentrations” value is listed as “increased more rapidly”; the “tmax, with compound (2) vs drug alone” value is recorded as “significantly shorter”.

Regarding `O=C(N[C@@H](CCO)c1ccc(F)cc1)[C@@H]1SCCN1S(=O)(=O)c1ccc(-c2ccccc2)cc1` [compound (1), 3-([1,1′-biphenyl]-4-ylsulfonyl)-N-[1-(4-fluorophenyl)-3-hydroxypropyl]-1,3-thiazolidine-2-carboxamide], in series [3] (female, human), the “change in compound (1) AUC0-24” value is on record as 15-24%, the “change in compound (1) AUC (AUC0-24)” value was −21%, the “increase in compound (1) AUC” value amounted to 15% and the “increase in compound (1) Cmax” value is 35%. In addition, the “increase in compound (1) MRT and t1/2” value in series [3] (female, human) is 1.7-2 fold. For the same compound, in series [3] (human), the “PE, compound (1) AUC” value came to 0.786; the “PE, compound (1) Cmax” value is given as 0.719; the “changes in compound (1) tmax” value is given as “not significant”; the “compound (1) CL/F” value was “decrease”. Also, the “compound (1) tmax” value in series [3] (human) is on record as “increase”. Also, in the series “clinical”, the Tmax is 3 h. Also, in series [1] (setting [8]), the “compound (1) AUC0-24” value was “small decrease” and the “compound (1) AUC0-t or AUC0-∞” value was “unchanged”. For the same compound, in series [1] (setting [9]), the “compound (1) tmax” value is on record as “slightly later; also recorded: no effect” and the “interaction estimates (linear mixed model)” value was around 1. Moreover, in series [1] (during MgSO4 infusion vs compound (2) alone), the “compound (1) Cmax” value is given as “lower”. Moreover, in series [1], the “pharmacokinetic interaction between compound (2) and MgSO4” value is “no interaction of clinical significance”. Further, the “compound (1) mean t1/2 and MRT” value in series [1] (with vs without MgSO4 infusion) was “nearly identical”.

For the compound `CC(C)[C@H](N)C(=O)OCC[C@H](NC(=O)[C@@H]1SCCN1S(=O)(=O)c1ccc(-c2ccccc2)cc1)c1ccc(F)cc1` [compound (2), (3S)-3-({[(2S)-3-(biphenyl-4-ylsulfonyl)-1,3-thiazolidin-2-yl]carbonyl}-amino)-3-(4-fluorophenyl)propyl L-valinate], the “substrate for the Pept1 transporter protein” value in series [4] was “not substrates”. For the same compound, in series [5], the “mean AUC0-∞ of compound (2), times lower than that of compound (1)” value is 771-1163 times and the “mean peak concentration of compound (2), times lower than that of compound (1)” value is reported as 133-246 times. In series [6], the “solubility in water and in FeSSIF and FaSSIF media” value is recorded as “improvements”. Also, the “pharmacokinetic interaction between compound (2) and MgSO4” value in series [1] is given as “no relevant mutual pharmacokinetic interactions”.

Take `CC(C)[C@H](N)C(=O)OCC[C@H](NC(=O)[C@@H]1SCCN1S(=O)(=O)c1ccc(-c2ccccc2)cc1)c1ccc(F)cc1.Cl` [compound (3), (3S)-3-({[(2S)-3-(biphenyl-4-ylsulfonyl)-1,3-thiazolidin-2-yl]carbonyl}-amino)-3-(4-fluorophenyl)propyl L-valinate hydrochloride]: in series [7], the hygroscopicity entry is given as “low”. In addition, the “stability of the crystal form” value in series [7] (ambient conditions and elevated relative humidity) is on record as “extended stability”.

Take `COC(=O)C1=C(C)NC(C)=C(C(=O)OC)C1c1ccccc1[N+](=O)[O-]` [nifedipine, reference compound]: the “effect of compound (2) on exposure to the co-administered drug” value in series [3] is given as “marked increase”.
